Reference: patent US8093287B2, “Inhibitors of matrix metalloproteinases” (University of Notre Dame du Lac, priority 2005, dated 2012)
In brackets after ≈: the same amount, converted by molar mass. Like-named read-outs stand apart in the source and are kept apart here.

Columns and labels:
[1] = system: HT1080 cells; assay: Migration assay, scratch wound; type: cell-based, human
Method: (§1) FIG. 7 illustrates inhibition of HT1080 cell motility and invasion by inhibitor 2.3. A-B: Confluent cultures of HT1080 cells in 6-well plates were treated with mitomycin C (25 μg/ml) in serum-free DMEM media for 30 minutes. Scratch wounds were made on the monolayers and the wounded cultures were then incubated with serum-free DMEM supplemented without or with various amounts of inhibitor 2.3 (0-20 μM) for up to 20 hours. At each time period, the cultures were photographed (A) and the width of the scratch wound was measured as described under the Experimental Procedures section of Example 2. (C): HT1080 cells were seeded in 8-μm pore Transwell filters coated with Matrigel (50 μg/filter) in the presence or absence of inhibitor 2.3 (0.1-10 μM). The number of cells that invaded to the lower side of the filter was counted in three representative fields. Each value represents the mean±SE of four independent determinations. *P<0.05, and *P<0.001 when tested against the control using Tukey-Kramer Multiple Comparisons Test (P=0.004 by ANOVA).
Migration and Invasion Assays—For migration assays, HT1080 cells were cultured in 6-well plates in complete media until they reached confluence. […] The extent of wound closure in the presence or absence of inhibitor was quantified by measuring the width of the wound with a ruler using an amplified PowerPoint figure.

[2] = system: HT1080 cells; assay: Tumor cell invasion, Matrigel-coated Transwell; type: cell-based; details: Homo sapiens, HT-1080; 100 nM; Matrigel-coated filters, 18 h
Method: as §1
Tumor cell invasion was carried out in 8-μm pore Transwell inserts (Becton Dickinson, Boston, Mass.) coated with 50 μg Matrigel per filter. […] The cells that migrated to the lower side of the Matrigel-coated filter were fixed and stained with Diff-Quik® (Dade Behring Inc., Newark, Del.), and counted under a microscope in three different fields. […]

[3] = system: HT1080 cells; assay: Chemosensitivity assay (WST-1); type: cell-based, human; details: up to 10 μM, 18 hours
Method: Chemosensitivity Assay—Cell viability after exposure of the cells to the inhibitors was assessed by 2-(4-iodophenyl)-3-(4-nitrophenyl)-5-(2,4-disulfophenyl)-2H-tetrazolium, monosodium salt (WST-1, Roche Diagnostics Gmbh, Mannheim, Germany) staining Briefly, HT1080 cells (2×10^4 cells/well) were seeded in 96-well culture plates in complete medium. After overnight culture, the medium was replaced with serum and phenol-free media containing 0.1% BSA and supplemented with or without inhibitor 2.3 (0-10 μM final concentrations). Control medium was supplemented with 1% DMSO. After 18 hours incubation, WST-1 (10 μL/well) was added and the difference in absorbance at 450 and 655 (reference filter) nm was measured using a Bio-Rad Benchmark microplate reader. Data were collected using the Microplate Manager software. The absorbance of blank wells containing control media but no cells (typically <5%) was subtracted. Each treatment was assayed in quadruplicate.

[4] = target: T1, MMP-9 (Homo sapiens, UniProt P14780); details: read-out: Ki of the slow-binding component
Target sequence in this assay (P14780 107-707 limits assumed): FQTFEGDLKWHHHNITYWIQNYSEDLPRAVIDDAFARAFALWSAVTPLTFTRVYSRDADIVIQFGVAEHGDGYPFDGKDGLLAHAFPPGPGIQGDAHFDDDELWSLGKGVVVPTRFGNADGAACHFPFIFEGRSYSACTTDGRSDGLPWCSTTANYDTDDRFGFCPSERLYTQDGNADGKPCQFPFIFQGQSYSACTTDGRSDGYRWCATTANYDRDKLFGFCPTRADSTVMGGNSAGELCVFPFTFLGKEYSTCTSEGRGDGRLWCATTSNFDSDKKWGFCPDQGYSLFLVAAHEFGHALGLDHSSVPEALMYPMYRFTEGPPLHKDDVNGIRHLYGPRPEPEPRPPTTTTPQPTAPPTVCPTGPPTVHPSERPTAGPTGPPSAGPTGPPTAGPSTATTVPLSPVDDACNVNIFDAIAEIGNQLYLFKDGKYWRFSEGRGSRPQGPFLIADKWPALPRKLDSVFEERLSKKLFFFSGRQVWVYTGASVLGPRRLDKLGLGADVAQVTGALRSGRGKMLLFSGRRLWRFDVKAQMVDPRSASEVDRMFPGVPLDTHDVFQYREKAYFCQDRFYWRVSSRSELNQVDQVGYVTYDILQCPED

[5] = target: T2, MMP-14 (Homo sapiens, UniProt P50281); details: MMP-14, slow-binding component, koff/kon
[6] = target: T3, MMP-7 (Homo sapiens, UniProt P09237); details: MMP-7, rapid competitive inhibition
T3 sequence (P09237 95-267): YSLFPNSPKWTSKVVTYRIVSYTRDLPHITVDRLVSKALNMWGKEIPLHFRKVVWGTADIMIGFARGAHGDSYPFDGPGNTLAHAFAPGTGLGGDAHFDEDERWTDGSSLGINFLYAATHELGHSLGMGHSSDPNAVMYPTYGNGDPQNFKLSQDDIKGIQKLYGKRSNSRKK

[7] = target: T4, MMP-3 (Homo sapiens, UniProt P08254); details: MMP-3, rapid competitive inhibition
Target sequence in this assay (P08254 100-272 limits assumed): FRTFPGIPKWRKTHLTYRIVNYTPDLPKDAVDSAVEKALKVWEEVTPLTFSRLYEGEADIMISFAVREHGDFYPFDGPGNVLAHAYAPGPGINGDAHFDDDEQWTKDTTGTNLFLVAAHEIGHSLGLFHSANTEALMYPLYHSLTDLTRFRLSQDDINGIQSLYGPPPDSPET

[8] = physchem; details: 37 °C, pH 7.5, aqueous with cosolvent or surfactant or cyclodextrin, kinetic from dmso stock
[9] = target: T5, MMP-1 (Homo sapiens, UniProt P03956); assay: biochemical
T5 sequence (P03956 100-469): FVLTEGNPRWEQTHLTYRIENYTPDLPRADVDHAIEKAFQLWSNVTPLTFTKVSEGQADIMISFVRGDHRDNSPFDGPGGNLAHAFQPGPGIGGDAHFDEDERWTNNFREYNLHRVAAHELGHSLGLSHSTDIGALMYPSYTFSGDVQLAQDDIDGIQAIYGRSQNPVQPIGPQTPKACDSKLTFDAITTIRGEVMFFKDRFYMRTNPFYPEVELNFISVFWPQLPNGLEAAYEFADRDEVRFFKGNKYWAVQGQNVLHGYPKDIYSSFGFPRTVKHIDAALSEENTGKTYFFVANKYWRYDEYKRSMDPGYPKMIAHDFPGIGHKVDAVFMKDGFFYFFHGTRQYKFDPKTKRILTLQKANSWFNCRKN

[10] = target: T1, MMP-9; assay: biochemical
Target sequence in this assay (P14780 107-707 limits assumed): as the sequence (P14780 107-707 limits assumed) above

[11] = target: T2, MMP-14; assay: biochemical
[12] = target: T3, MMP-7; assay: biochemical
[13] = target: T4, MMP-3; assay: biochemical
Target sequence in this assay (P08254 100-272 limits assumed): as the sequence (P08254 100-272 limits assumed) above

[14] = Assessment of inhibitor solubility; details: 37 °C, pH 7.5, aqueous with cosolvent or surfactant or cyclodextrin, kinetic from dmso stock
[15] = target: T6, MMP-2 (Homo sapiens, UniProt P08253); assay: Enzyme kinetics, MMP inhibition (Example 1); type: biochemical; details: for Ki: for 1.3 with slow-binding component
T6 sequence (P08253 110-660): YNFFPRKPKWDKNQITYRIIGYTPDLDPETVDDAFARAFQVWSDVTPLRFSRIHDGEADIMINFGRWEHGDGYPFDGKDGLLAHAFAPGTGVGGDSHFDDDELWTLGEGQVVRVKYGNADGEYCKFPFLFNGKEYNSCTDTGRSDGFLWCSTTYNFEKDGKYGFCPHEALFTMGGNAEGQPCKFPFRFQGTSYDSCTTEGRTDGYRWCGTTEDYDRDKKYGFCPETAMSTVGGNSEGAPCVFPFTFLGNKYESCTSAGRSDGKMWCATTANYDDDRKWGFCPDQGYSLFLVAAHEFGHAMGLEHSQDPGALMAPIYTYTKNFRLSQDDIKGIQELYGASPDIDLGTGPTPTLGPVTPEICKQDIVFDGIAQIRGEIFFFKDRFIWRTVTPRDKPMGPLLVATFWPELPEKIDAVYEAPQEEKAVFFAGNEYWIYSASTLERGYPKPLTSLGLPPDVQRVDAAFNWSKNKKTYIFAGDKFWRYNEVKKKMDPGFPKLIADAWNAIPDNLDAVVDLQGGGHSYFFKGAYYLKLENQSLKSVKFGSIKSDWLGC

[16] = target: T1, MMP-9; assay: Enzyme kinetics, MMP inhibition (Example 1); type: biochemical
Target sequence in this assay (P14780 94-707): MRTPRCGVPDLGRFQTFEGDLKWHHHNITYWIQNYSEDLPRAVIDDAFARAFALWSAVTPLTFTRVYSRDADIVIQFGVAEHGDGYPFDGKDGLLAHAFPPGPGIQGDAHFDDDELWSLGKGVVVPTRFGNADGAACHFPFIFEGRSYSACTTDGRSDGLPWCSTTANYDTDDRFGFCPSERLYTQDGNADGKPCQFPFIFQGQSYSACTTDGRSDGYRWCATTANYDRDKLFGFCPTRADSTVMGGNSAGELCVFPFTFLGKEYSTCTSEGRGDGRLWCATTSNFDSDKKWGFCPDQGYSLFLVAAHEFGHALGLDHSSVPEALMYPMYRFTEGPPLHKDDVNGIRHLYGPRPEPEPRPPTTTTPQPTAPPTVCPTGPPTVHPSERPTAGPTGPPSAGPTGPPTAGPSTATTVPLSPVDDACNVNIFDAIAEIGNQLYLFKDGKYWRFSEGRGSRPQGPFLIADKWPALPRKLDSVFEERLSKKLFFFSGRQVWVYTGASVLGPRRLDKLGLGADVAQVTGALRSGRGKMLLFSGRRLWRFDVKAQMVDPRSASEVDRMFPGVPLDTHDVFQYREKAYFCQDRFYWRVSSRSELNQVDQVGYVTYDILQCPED

[17] = target: T7, MMP-14cat (Homo sapiens, UniProt P50281); assay: Enzyme kinetics, MMP inhibition (Example 1); type: biochemical
T7 construct: MMP-2 (A), MMP-9 (B) and MMP-14cat (C)

[18] = target: T5, MMP-1; assay: Enzyme kinetics, MMP inhibition (Example 1); type: biochemical
[19] = target: T4, MMP-3; assay: Enzyme kinetics, MMP inhibition (Example 1); type: biochemical
Target sequence in this assay (P08254 100-477): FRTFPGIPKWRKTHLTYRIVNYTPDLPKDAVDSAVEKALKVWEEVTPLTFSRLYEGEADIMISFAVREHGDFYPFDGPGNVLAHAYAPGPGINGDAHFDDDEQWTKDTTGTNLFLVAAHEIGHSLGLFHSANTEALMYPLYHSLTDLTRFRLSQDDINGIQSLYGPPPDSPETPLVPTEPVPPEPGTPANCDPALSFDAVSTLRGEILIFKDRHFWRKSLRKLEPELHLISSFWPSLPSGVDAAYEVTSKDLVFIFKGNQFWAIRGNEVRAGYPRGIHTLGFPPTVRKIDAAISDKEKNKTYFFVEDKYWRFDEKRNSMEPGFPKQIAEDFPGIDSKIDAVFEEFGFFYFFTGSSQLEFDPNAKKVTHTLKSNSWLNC

[20] = target: T3, MMP-7; assay: Enzyme kinetics, MMP inhibition (Example 1); type: biochemical

Q: For `CS(=O)(=O)Nc1ccc(Oc2ccc(S(=O)(=O)CC3CS3)cc2)cc1` (stereo not drawn) [Compound 2.3, {4-[4-(Methanesulfonamido)phenoxy]phenylsulfonyl}methylthiirane], which “migration in scratch wound assay” value ([1]; 200 nM) is on record?
A: slower migration

Q: What about the inhibition at 2 µM ([1]; Homo sapiens, HT-1080) of the same compound?
A: 80%

Q: What about the inhibition at 0.1 µM [2] of the same compound?
A: > 25%

Q: And the “cell toxicity (WST-1)” value [3]?
A: no evidence of cell toxicity

Q: What about the Ki [4] of the same compound?
A: 0.18 ± 0.05 µM

Q: And the Ki [5]?
A: 0.9 ± 0.1 µM

Q: And the Ki [6]?
A: 295 ± 10 µM

Q: And the Ki [7]?
A: 3.6 ± 0.2 µM

Q: What about the solubility [8] of the same compound?
A: 340 µM (≈ 136 µg/mL)

Q: And the Ki [9]?
A: > 25 µM

Q: Which solubility [8] does the source give for `O=S(=O)(CC1CS1)c1ccc(Oc2ccccc2)cc1` (stereo not drawn) [Compound 2.1, reference compound] here?
A: 80 µM (≈ 24.5 µg/mL)

Q: With `O=[N+]([O-])c1ccc(Oc2ccc(S(=O)(=O)CC3CS3)cc2)cc1` (stereo not drawn) [Compound 2.5, [4-(4-Nitrophenoxy)phenylsulfonyl]methylthiirane] as the compound, how does the Ki [10] read?
A: 1 ± 0.1 µM

Q: What about the Ki [11] of the same compound?
A: 4.9 ± 0.3 µM

Q: What about the Ki [12] of the same compound?
A: 153 ± 16 µM

Q: What about the Ki [13] of the same compound?
A: 131 ± 9 µM

Q: What about the Ki [9] of the same compound?
A: 67 ± 18 µM

Q: What about the solubility [14] of the same compound?
A: 60 µM (≈ 21.1 µg/mL)

Q: With “2-(4-{4-[(2-Thiiranylpropyl)sulfonyl]phenoxy}phenyl)acetic acid [Compound 1.4]” as the compound, how does the Ki [15] read?
A: 0.46 µM

Q: And the Ki [16]?
A: 4.1 µM

Q: And the Ki [17]?
A: 53 µM

Q: What about the Ki [18] of the same compound?
A: 4.5 µM

Q: And the Ki [19]?
A: 540 µM

Q: What about the Ki [20] of the same compound?
A: 250 µM

Q: For `O=[N+]([O-])c1ccc(Oc2ccc(S(=O)(=O)CC3CO3)cc2)cc1` (stereo not drawn) [Compound 2.4, [4-(4-Nitrophenoxy)phenylsulfonyl]methyloxirane], which Ki [10] is on record?
A: 25 ± 5 µM

Q: What about the Ki [11] of the same compound?
A: 76 ± 13 µM

Q: And the Ki [12]?
A: 130 ± 15 µM

Q: And the Ki [13]?
A: > 190 µM

Q: And the Ki [9]?
A: > 298 µM

Q: For `CC(=O)Nc1ccc(Oc2ccc(S(=O)(=O)CC3CS3)cc2)cc1` (stereo not drawn) [Compound 2.7, [4-(4-Acetamidophenoxy)phenylsulfonyl]methylthiirane], which solubility [8] is on record?
A: 540 µM (≈ 196 µg/mL)

Q: With `CC(=O)Nc1ccc(Oc2ccc(S(=O)(=O)CC3CO3)cc2)cc1` (stereo not drawn) [Compound 2.6, [4-(4-Acetamidophenoxy)phenylsulfonyl]methyloxirane] as the compound, how does the Ki [10] read?
A: 34 ± 3 µM

Q: And the Ki [11]?
A: > 230 µM

Q: What about the Ki [12] of the same compound?
A: > 184 µM

Q: What about the Ki [13] of the same compound?
A: > 188 µM

Q: And the Ki [9]?
A: > 154 µM

Q: With “Methyl 2-(4-{4-[(2-Thiiranylpropyl)sulfonyl]phenoxy}phenyl)-acetate [Compound 1.3]” as the compound, how does the “koff, slow-binding component of inhibition” value [15] read?
A: (6.2 ± 0.7) × 10^−4 s^−1

Q: What about the “kon, slow-binding component of inhibition” value [15] of the same compound?
A: (1.2 ± 0.3) 10^4 M^−1s^−1

Q: And the Ki [15]?
A: 0.05 ± 0.014 µM

Q: What about the Ki [16] of the same compound?
A: 0.04 ± 0.002 µM

Q: And the Ki [17]?
A: 0.59 ± 0.07 µM

Q: What about the Ki [18] of the same compound?
A: 11 µM

Q: And the Ki [19]?
A: 8.7 µM

Q: And the Ki [20]?
A: 13 µM
